Assay results reported in patent US11566007B2, “Ras inhibitors” (Revolution Medicines, Inc., priority 2019, dated 2023).
Values joined by “and” are separate entries in the source; they are usually repeats but may differ in a detail not shown here. Equal entries are not always repeated. Where two headings read alike, the source gives them in different places.

What was measured:
K-Ras G12C = K-Ras G12C (Homo sapiens (Human), UniProt P01116+P62937, G12C); assay: Ras-Raf (BRAF RBD) disruption / FRET / MOA assay, KRAS G12C; type: biochemical; conditions: KRAS G12C; Ras-Raf disruption/FRET/MOA assay; read-out: IC50* KRAS G12C FRET data
Sequence of K-Ras G12C (P01116-2 other isoform, or with tags, fused parts or gaps G12C): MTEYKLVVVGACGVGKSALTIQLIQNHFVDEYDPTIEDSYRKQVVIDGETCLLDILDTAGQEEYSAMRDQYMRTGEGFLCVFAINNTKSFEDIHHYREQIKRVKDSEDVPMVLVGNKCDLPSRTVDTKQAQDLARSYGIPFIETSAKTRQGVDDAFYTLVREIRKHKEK
Sequence of K-Ras G12C (P62937 whole entry, canonical isoform): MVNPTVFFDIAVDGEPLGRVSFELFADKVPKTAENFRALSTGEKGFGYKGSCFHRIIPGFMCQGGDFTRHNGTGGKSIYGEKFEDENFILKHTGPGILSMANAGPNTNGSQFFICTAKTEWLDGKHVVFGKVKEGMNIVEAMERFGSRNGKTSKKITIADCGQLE
Description: (§1) The purpose of this biochemical assay is to measure the ability of test compounds to facilitate ternary complex formation between a nucleotide-loaded Ras isoform and cyclophilin A; the resulting ternary complex disrupts binding to a BRAF^RBD construct, inhibiting Ras signaling through a RAF effector.
(§2) Compound is present in plate wells as a 10-point 3-fold dilution series starting at a final concentration of 30 μM. After incubation at 25° C. for 3 hours, a mixture of Anti-His Eu-W1024 and anti-GST allophycocyanin is then added to assay sample wells at final concentrations of 10 nM and 50 nM, respectively, and the reaction incubated for an additional 1.5 hours. […] Compounds that facilitate disruption of a Ras:RAF complex are identified as those eliciting a decrease in the TR-FRET ratio relative to DMSO control wells.
(§3) This protocol may also be executed substituting other Ras proteins or nucleotides.
(§4) The purpose of this biochemical assay was to measure the ability of test compounds to facilitate ternary complex formation between a nucleotide-loaded K-Ras isoform and Cyclophilin A; the resulting ternary complex disrupts binding to a BRAF^RBD construct, inhibiting K-Ras signaling through a RAF effector. Data is reported as IC50 values.
as §2, with “Compound was” for “Compound is”, “allophycocyanin was” for “allophycocyanin is”, “a K-Ras:RAF” for “a Ras:RAF”, “complex were” for “complex are”

KRAS G12D = KRAS G12D (Homo sapiens (Human), UniProt P01116+P62937, G12D); assay: Ras-Raf (BRAF RBD) disruption / FRET / MOA assay, KRAS G12D; type: biochemical; conditions: Ras-Raf disruption/FRET/MOA assay; class symbols; read-out: KRAS G12D FRET data IC50
Sequence of KRAS G12D (P01116-2 other isoform, or with tags, fused parts or gaps G12D): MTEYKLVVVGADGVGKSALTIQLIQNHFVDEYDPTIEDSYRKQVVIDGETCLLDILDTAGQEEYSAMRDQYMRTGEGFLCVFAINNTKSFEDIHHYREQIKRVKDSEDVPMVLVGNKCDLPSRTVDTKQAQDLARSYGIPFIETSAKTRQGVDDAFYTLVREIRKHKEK
Sequence of KRAS G12D (P62937 whole entry): as the sequence (P62937 whole entry, canonical isoform) above
Method in brief: (§5)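 TR-FRET read-out: a drop in ratio relative to DMSO wells marks disruption of the Ras:RAF complex, reported as IC50. Compounds (3-fold series, 10 points, top 30 μM final) incubated 3 h at 25° C before Eu-anti-His 10 nM and APC-anti-GST 50 nM, 1.5 h more.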

K-Ras G13C = K-Ras G13C (Homo sapiens (Human), UniProt P01116+P62937, G13C); assay: Ras-Raf (BRAF RBD) disruption / FRET / MOA assay, KRAS G13C; type: biochemical; conditions: KRAS G13C; Ras-Raf disruption/FRET/MOA assay; read-out: IC50* KRAS G13C FRET data
Sequence of K-Ras G13C (P01116-2 other isoform, or with tags, fused parts or gaps G13C): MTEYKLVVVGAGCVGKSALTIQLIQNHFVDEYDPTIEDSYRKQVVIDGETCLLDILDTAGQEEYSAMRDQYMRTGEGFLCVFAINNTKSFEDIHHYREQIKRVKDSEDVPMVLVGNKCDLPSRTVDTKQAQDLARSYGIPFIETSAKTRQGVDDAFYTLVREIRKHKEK
Sequence of K-Ras G13C (P62937 whole entry): as the sequence (P62937 whole entry, canonical isoform) above
Description: as §1, §2, §3, §4
as §2, with “Compound was” for “Compound is”, “allophycocyanin was” for “allophycocyanin is”, “a K-Ras:RAF” for “a Ras:RAF”, “complex were” for “complex are”

[1] = tested on: NCI-H358 cells (K-Ras G12C); assay: Potency assay: pERK in NCI-H358 cells; type: cell-based, human; conditions: H358 KRAS G12C, read-out: pERK EC50
Method in brief: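 pERK decrease read by AlphaLISA SureFire p-ERK1/2 or In-Cell Western after 4 h compound exposure at 37 °C, 5% CO2.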

NRAS G12C = NRAS G12C (Homo sapiens (Human), UniProt P01111+P62937, G12C); assay: Ras-Raf (BRAF RBD) disruption / FRET / MOA assay, NRAS G12C; type: biochemical; conditions: read-out: IC50* NRAS G12C FRET data
Sequence of NRAS G12C (P01111 whole entry G12C): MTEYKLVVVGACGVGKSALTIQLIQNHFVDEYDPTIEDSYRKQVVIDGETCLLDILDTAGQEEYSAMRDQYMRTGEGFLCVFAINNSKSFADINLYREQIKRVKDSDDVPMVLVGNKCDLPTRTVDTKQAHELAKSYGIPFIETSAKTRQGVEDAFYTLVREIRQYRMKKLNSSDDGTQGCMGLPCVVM
Sequence of NRAS G12C (P62937 whole entry): as the sequence (P62937 whole entry, canonical isoform) above
Description: as §1, §2
This protocol may also be executed substituting other Ras proteins or nucleotides. […]

KRAS G12S = KRAS G12S (Homo sapiens (Human), UniProt P01116+P62937, G12S); assay: Ras-Raf (BRAF RBD) disruption / FRET / MOA assay, KRAS G12S; type: biochemical; conditions: Ras-Raf disruption/FRET/MOA assay; class symbols; read-out: KRAS G12S FRET data IC50
Sequence of KRAS G12S (P01116-2 other isoform, or with tags, fused parts or gaps G12S): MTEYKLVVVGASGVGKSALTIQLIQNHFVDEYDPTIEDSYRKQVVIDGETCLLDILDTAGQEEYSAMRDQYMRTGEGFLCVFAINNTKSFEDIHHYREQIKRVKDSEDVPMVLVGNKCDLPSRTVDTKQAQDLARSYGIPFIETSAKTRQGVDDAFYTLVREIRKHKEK
Sequence of KRAS G12S (P62937 whole entry): as the sequence (P62937 whole entry, canonical isoform) above
Method in brief: as §5

KRAS G12V = KRAS G12V (Homo sapiens (Human), UniProt P01116+P62937, G12V); assay: Ras-Raf (BRAF RBD) disruption / FRET / MOA assay, KRAS G12V; type: biochemical; conditions: read-out: IC50* KRAS G12V FRET data
Sequence of KRAS G12V (P01116-2 other isoform, or with tags, fused parts or gaps G12V): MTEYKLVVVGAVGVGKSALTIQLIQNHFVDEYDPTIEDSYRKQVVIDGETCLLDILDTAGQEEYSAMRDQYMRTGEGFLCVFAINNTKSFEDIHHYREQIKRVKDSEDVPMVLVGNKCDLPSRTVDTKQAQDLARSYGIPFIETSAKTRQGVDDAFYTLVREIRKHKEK
Sequence of KRAS G12V (P62937 whole entry): as the sequence (P62937 whole entry, canonical isoform) above
Description: as §1, §2, §3, §4
as §2, with “Compound was” for “Compound is”, “allophycocyanin was” for “allophycocyanin is”, “a K-Ras:RAF” for “a Ras:RAF”, “complex were” for “complex are”

KRAS WT = KRAS WT (Homo sapiens (Human), UniProt P01116+P62937); assay: Ras-Raf (BRAF RBD) disruption / FRET / MOA assay, KRAS WT; type: biochemical; conditions: read-out: IC50* KRAS WT FRET data
Sequence of KRAS WT (P01116-2 other isoform, or with tags, fused parts or gaps): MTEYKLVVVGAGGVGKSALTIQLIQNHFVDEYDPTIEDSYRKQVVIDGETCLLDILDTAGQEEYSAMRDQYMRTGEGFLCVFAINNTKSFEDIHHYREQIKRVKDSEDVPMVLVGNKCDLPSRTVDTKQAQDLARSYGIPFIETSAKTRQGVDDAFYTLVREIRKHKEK
Sequence of KRAS WT (P62937 whole entry): as the sequence (P62937 whole entry, canonical isoform) above
Description: as §1, §2, §3, §4
as §2, with “Compound was” for “Compound is”, “allophycocyanin was” for “allophycocyanin is”, “a K-Ras:RAF” for “a Ras:RAF”, “complex were” for “complex are”

NCI-H358 (K-Ras G12C) = assay: CellTiter-Glo cell viability assay, NCI-H358; type: cell-based, human; conditions: NCI-H358, 5-day treatment, class symbols, read-out: Additional H358 Cell Viability assay data (K-Ras G12C, IC50)
Method in brief: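 Compounds dispensed directly onto seeded K-Ras mutant cells; plates read on day 5 after ~30 min equilibration to room temperature, by CellTiter-Glo luminescence. Signal normalized as (sample/mean DMSO)×100, then fitted to a four-parameter logistic curve.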

KRAS G13D = KRAS G13D (Homo sapiens (Human), UniProt P01116+P62937, G13D); assay: Ras-Raf (BRAF RBD) disruption / FRET / MOA assay, KRAS G13D; type: biochemical; conditions: read-out: IC50* KRAS G13D FRET data
Sequence of KRAS G13D (P01116-2 other isoform, or with tags, fused parts or gaps G13D): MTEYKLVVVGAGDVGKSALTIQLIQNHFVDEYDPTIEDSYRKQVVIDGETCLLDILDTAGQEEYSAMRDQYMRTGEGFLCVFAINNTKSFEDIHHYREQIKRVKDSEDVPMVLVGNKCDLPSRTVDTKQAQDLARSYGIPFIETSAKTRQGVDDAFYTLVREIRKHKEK
Sequence of KRAS G13D (P62937 whole entry): as the sequence (P62937 whole entry, canonical isoform) above
Description: as §1, §2, §3, §4
as §2, with “Compound was” for “Compound is”, “allophycocyanin was” for “allophycocyanin is”, “a K-Ras:RAF” for “a Ras:RAF”, “complex were” for “complex are”

| Compound | IC50 (K-Ras G12C) | IC50 (KRAS G12D) | IC50 (K-Ras G13C) | EC50 [1] [µM] | IC50 (NRAS G12C) | IC50 (KRAS G12S) [nM] | IC50 (KRAS G12V) | IC50 (KRAS WT) | EC50 ([1]; Homo sapiens, NCI-H358) [µM] | IC50 (NCI-H358 (K-Ras G12C); Homo sapiens, NCI-H358, 120 h) [nM] | IC50 (KRAS G13D) [nM] | IC50 (NCI-H358 (K-Ras G12C)) [nM] |
| --- | --- | --- | --- | --- | --- | --- | --- | --- | --- | --- | --- | --- |
| CCn1c(-c2ccccc2CCOC)c2c3cc(ccc31)-c1cc(O)cc(c1)C[C@H](NC(=O)[C@H](C(C)C)N(C)C(=O)c1ccc(NC(=O)/C=C/CN(C)C)nc1)C(=O)N1CCC[C@H](N1)C(=O)OCC(C)(C)C2 [Example A218] | 100 to 1000 nM and 1000 to 10000 nM | 1 to 10 µM | 10 to 100 nM and 100 to 1000 nM | – | – | > 10000 | 1000 to 10000 nM and > 10000 nM | > 10000 nM | < 5 | > 1000 | – | – |
| C=CC(=O)N1CC[C@H](C(=O)N(C)[C@H](C(=O)N[C@H]2Cc3cc(O)cc(c3)-c3ccc4c(c3)c(c(-c3ccccc3CCOC)n4CC)CC(C)(C)COC(=O)[C@]3(C)CCCN(N3)C2=O)C(C)C)C1 [Example A219] | 1 µM to 10 µM (2×) and > 10 µM (2×) | > 10 µM | > 10000 nM | – | – | > 10000 | > 10000 nM | > 10000 nM | < 5 | 100 to 1000 | – | – |
| CCn1c(-c2ccccc2CCOC)c2c3cc(ccc31)-c1cc(O)cc(c1)C[C@H](NC(=O)[C@H](C(C)C)N(C)C(=O)c1ccc(N(C)C(=O)/C=C/CN(C)C)cc1)C(=O)N1CCC[C@H](N1)C(=O)OCC(C)(C)C2 [Example A220] | 100 to 1000 nM and 1000 to 10000 nM | 1 to 10 µM and > 10 µM | 100 to 1000 nM | – | – | > 10000 | > 10000 nM | > 10000 nM | < 5 | > 1000 | – | – |
| CCn1c(-c2ccccc2CCOC)c2c3cc(ccc31)-c1cc(O)cc(c1)C[C@H](NC(=O)[C@H](C(C)C)N(C)C(=O)c1ccc(NC(=O)/C=C/CN(C)C)cn1)C(=O)N1CCC[C@H](N1)C(=O)OCC(C)(C)C2 [Example A224] | 100 to 1000 nM and 1000 to 10000 nM | 1 to 10 µM | 10 to 100 nM and 100 to 1000 nM | – | – | > 10000 | 1000 to 10000 nM and > 10000 nM | > 10000 nM | < 5 | > 1000 | – | – |
| C=CC(=O)Nc1cnc(C(=O)N(C)[C@H](C(=O)N[C@H]2Cc3cc(O)cc(c3)-c3ccc4c(c3)c(c(-c3cccnc3[C@H](C)OC)n4CC)CC(C)(C)COC(=O)[C@@H]3CCCN(N3)C2=O)C(C)C)n1C [Example A334] | < 10 nM and 10 to 100 nM | 0.1 to 1 µM | 10 to 100 nM and < 10 nM | – | < 10 nM and 10 to 100 nM | 10 to 100 | 100 to 1000 nM and 10 to 100 nM | 100 to 1000 nM and 10 to 100 nM | < 5 | – | – | < 10 |

More lines, main results first:

| IC50 (K-Ras G12C) | IC50 (KRAS G12D) | IC50 (K-Ras G13C) | EC50 [1] [µM] | IC50 (NRAS G12C) | IC50 (KRAS G12S) [nM] | IC50 (KRAS G12V) | IC50 (KRAS WT) | EC50 ([1]; Homo sapiens, NCI-H358) [µM] | IC50 (NCI-H358 (K-Ras G12C); Homo sapiens, NCI-H358, 120 h) [nM] | IC50 (KRAS G13D) [nM] | Compound | IC50 (NCI-H358 (K-Ras G12C)) [nM] |
| --- | --- | --- | --- | --- | --- | --- | --- | --- | --- | --- | --- | --- |
| < 10 nM | 1 to 10 µM | 100 to 1000 nM | < 5 | < 10 nM | > 10000 | – | – | – | – | – | CCn1c(-c2cccnc2COC)c2c3cc(ccc31)-c1cc(C)cc(c1)C[C@H](NC(=O)[C@H](C(C)C)N(C)C(=O)[C@H]1CCN(C(=O)C#CCN(C)C)C1)C(=O)N1CCC[C@H](N1)C(=O)OCC(C)(C)C2 [Example A157] | – |
| – | 1 to 10 µM | 10 to 100 nM | – | – | 100 to 1000 | 100 to 1000 nM | 100 to 1000 nM | < 5 | < 10 | 100 to 1000 | CCn1c(-c2cccnc2[C@H](C)OC)c2c3cc(ccc31)-c1cc(O)cc(c1)C[C@H](NC(=O)[C@H](C(C)C)N(C)C(=O)[C@H]1CCN(C(=O)C#CC3(N(C)C)COC3)C1)C(=O)N1CCC[C@H](N1)C(=O)OCC(C)(C)C2 [Example A246] | – |
| < 10 nM | 1 to 10 µM | – | < 5 | < 10 nM | 100 to 1000 | – | – | – | – | – | CCn1c(-c2cccnc2[C@H](C)OC)c2c3cc(ccc31)-c1cc(O)cc(c1)C[C@H](NC(=O)[C@H](C(C)C)N(C)C(=O)[C@H]1CCN(C(=O)C#CC3(N(C)C)COC3)C1)C(=O)N1CCC[C@H](N1)C(=O)OCC(C)(C)C2 [Example A337] | < 10 |
